# Source: patent publication US7169812B2, “Process for producing injectable gabapentin compositions” (Medtronic, Inc., priority 2003, dated 2007)
# Entries after “also recorded” stand apart in the source; their conditions may differ.
# How the values were obtained:
# [1] = water; basic and acidic aqueous solutions; cited from earlier work
# [2] = test system: Crl:CD(SD)IGS BR rats; experiment: Intrathecal infusion toxicity study of heat-sterilized gabapentin solutions in rats (Day 1 to Day 29); assay type: in vivo; conditions: rat
# Experimental: Rats were infused intrathecally with solutions containing varying concentrations of gabapentin.
# Injectable solutions containing 80 mg/ml gabapentin were prepared and sterilized by heating to F0=24 as described in Example 1. The heat-sterilized 80 mg/ml gabapentin solutions were diluted in sterile water for injection, USP (Abbott Laboratories; North Chicago, Ill.) to prepare solutions at gabapentin concentrations of 1.67, 4.17, and 37.5 mg/ml as shown in Table 2.
# Osmotic minipumps(ALZET® Model 2ML4) were filled with approximately 2 ml of sterile water for Groups 1 and 6 or approximately 2 ml of the appropriate test article preparation for Groups 2 through 5. All dose preparations were filtered using a 0.22 μm filter prior to filling the osmotic minipumps.
# The animals were obtained from Charles River Laboratories; Raleigh, N.C.. The animals were cannulated by the supplier in the intrathecal space overlying the lumbar vertebrae. The cannulae consisted of 1.3 cm PE-10 tubing attached to a 7 cm piece of polyurethane tubing (0.025 ID×0.040 OD) with a total dead volume of approximately 23.5 μl. On Day 1 (staggered based on sex), the animals were anesthetized and one prefilled osmotic pump/animal was aseptically inserted subcutaneously on the animal's dorsum. The cannula was filled with sterile water or test article preparation, as appropriate, and the pumps were connected to the intrathecal cannulae. Beginning on Day 1, animals were dosed 24 hours/day at a dose volume of approximately 60.96 μl/day via intrathecal infusion using the osmotic minipump through necropsy on Day 29. At initiation of dosing, the animals were 8 to 9 weeks old, and their body weights ranged from 264 g to 340 g for the males and 191 g to 264 g for the females.
# Assessment of toxicity was based on mortality, clinical observations, ophthalmic examinations, body weights, food consumption, clinical pathology, and anatomic pathology. Ophthalmic examinations were performed prior to initiation of treatment and during week 4. An indirect ophthalmoscopy examination was done to include, but was not limited to, a cursory examination of the adnexa and anterior structures of the globe (e.g.,cornea, anterior chamber, lens) and a detailed examination of the ocular fundus. Body weights were taken prior to treatment, on Day 1, and weekly thereafter. Food consumption was measured weekly. At scheduled sacrifices, samples were taken for hematology, coagulation, and clinical chemistry. When possible, blood was collected from animals sacrificed at an unscheduled interval. Tissues were taken from each animal in groups 1 and 4 and each animal sacrificed at an unscheduled interval. Spinal cords were harvested from each animal in Groups 2, 3, and 5. The tissues and spinal cords were processed and examined microscopically. Macroscopic lesions were processed and examined microscopically from animals in Groups 2, 3, and 5. Sections of spinal cord from each animal in Groups 1 and 4 were embedded in paraffin, sectioned, and stained with luxol fast blue, and examined microscopically. Immunohistochemistry of spinal cord sections in paraffin from each animal in Groups 1 and 4 were sectioned, stained with anti-glial acidic fibrillary protein (Dako; Carpinteria, Calif.); rabbit IgG from Vector Laboratories; Burlingame, Calif. was used as a negative control), and examined. […]
# [3] = Tonicity of gabapentin dissolved in water; assay type: physicochemical; conditions: dissolved in water at 80 mg/ml
# From the text: In an embodiment, the invention provides an injectable composition comprising gabapentin, where the composition is substantially isotonic with a physiological fluid of a subject. For example, the injectable solution may be isotonic with a subject's blood or cerebrospinal fluid. Cerebrospinal fluid typically has a tonicity of about 305 mOsm. Accordingly, an embodiment of the invention provides an injectable gabapentin composition having a tonicity of about 290 mOsm to about 320 mOsm. If an injectable composition comprising gabapentin has a tonicity lower than about 290 mOsm to about 320 mOsm, the tonicity may be enhanced by adding a tonicity enhancing agent, such as sodium chloride. As used herein, “tonicity enhancing agent” means a compound or composition that increases tonicity of a composition. However, such tonicities of between about 290 mOsm to about 320 mOsm are not always achievable with gabapentin compositions. For example, gabapentin dissolved in water at a concentration of 80 mg/ml has a tonicity of about 500 mOsm. When the concentration of gabaentin in an injectable composition renders the composition hypertonic relative to a subject's physiological fluid, it is preferred that little or no amount of a tonicity enhancing agent be added to the composition. […]
# [4] = test system: mouse; conditions: cited from earlier work
smiles,measurement,setting,value
"NCC1(CC(=O)O)CCCCC1 [gabapentin, 1-(aminomethyl)cyclohexane acetic acid]",Solubility,[1],freely soluble
same,Overall toxicity / tolerability,"[2]; continuous intrathecal infusion, 0.10, 0.25, 2.25 and 4.8 mg/day, solutions heated to F0=24, acetic acid",no toxic effects attributable to the infused solutions were observed; also recorded: well tolerated and non-toxic
same,Glial fibrillary acidic protein immunostaining of spinal cord sections,[2]; control vs high-dose group (4.8 mg/day),no significant variation
same,"Organ weight differences, macroscopic observations, microscopic observations",[2]; intrathecal,"no test article-related organ weight differences, macroscopic observations, or microscopic observations"
same,"Effects on clinical observations, body weights, body weight changes, food consumption, ophthalmic observations, clinical or anatomic pathology observations","[2]; intrathecal, 0.10-4.8 mg/day",No clear effects were observed
same,Effect on clinical pathology test results,"[2]; intrathecal, terminally sterilized by heat",no obvious or adverse effect
same,Tonicity,[3],about 500 mOsm
same,"toxicity (LD50, mouse)",[4],more than 8000 mg/kg
